For series [1], the system named is G-quadruplexes in the HIV-1 LTR (G4 LTR FRET oligonucleotide). Kind of series: FRET melting assay. Type of series: binding. The conditions noted are these: 2 μM compound, 0.2 μM oligonucleotide; for Tm: 100 mM KCl, mean and standard error, three experiments; for ΔTm: average Tm minus average Tm of PBS.
In series [2] the test system is HIV-1. Description: Replication assay (RT activity in supernatant). Type of series: cell-based. The conditions noted are these: 10 µM, compound added 1 h after infection of MT-4 cells, RT activity 5 days after infection. Here is the method:
To address virion binding and entry in a competitive setting, we performed an adsorption assay where test compounds and virions were added to MT-4 cells simultaneously and were washed out after 2 h of incubation. In parallel, we performed a replication assay where MT-4 cells were infected with HIV-1 and the tested compounds were added 1 h later. In both cases, the infection was evaluated by measuring reverse transcriptase activity in a cell-free supernatant 5 days after the infection (Fig. 3). As controls, PBS (phosphate-buffered saline) and inhibitors of different HIV-1 life-cycle steps were used: AMD (AMD3100), an inhibitor of gp120 attachment to CXCR4 receptors of the target cell, thus preventing HIV-1 adsorption and entry; AZT (azidothymidine), an inhibitor of reverse transcriptase; and RAL (raltegravir), an integrase inhibitor.
MT-4 cells were seeded in 80 µl of the Roswell Park Memorial Institute (RPMI) medium in the amount of 2 × 10^5 cells per well of a 96-well plate, and 10 µl of the virus stock were immediately added with the final multiplicity of infection (MOI) of 0.05. For a replication assay, the infected cells were incubated at 37 °C for 1 h before the addition of compounds being tested (10 µM final concentration) and subsequently cultivated at 37 °C for another 5 days. For an adsorption test, by contrast, the compounds (10 µM final concentration) were added simultaneously with the virus, and after 2 h of incubation, the cells were washed three times with PBS to remove the compounds and unbound virions; after the addition of 100 µl of the RPMI medium, the cells were cultivated at 37 °C for 5 days. Five days post-infection, aliquots of virus-containing cell-free supernatants were harvested and analysed by reverse transcriptase (RT) assay (described in the Supplementary Information). The experiments were performed as biological replicates where the sample size for each condition was n = 3.
(§1) RT assay. The reverse transcriptase (RT) activity in a cell-free supernatant was assessed by an α-32P RT assay. Briefly, the RT activity in the culture medium, which corresponded to the amount of HIV-1, was used to produce a DNA copy of an RNA template by extending a complementary oligo dT DNA primer with radiolabelled nucleotides. A reaction mixture containing 50 mM Tris-HCl pH 7.8, 75 mM KCl, 2 mM DTT, 5 mM MgCl2 and 0.5% NP-40 (all Sigma-Aldrich), 5 µg per ml of poly (rA)-poly (dT) (The Midlan Certified Reagent Company) with 1 µl 10-mCi/ml [α-32P]dTTP (American Radiolabeled Chemicals) per ml, and the tested sample was incubated at 37°C for two hours, after which 10 µl were spotted on DEAE blotting paper (PerkinElmer) and air-dried. After five washes with SSC buffer (0.15 M NaCl, 0.015 M sodium citrate) and three additional washes with 85% ethanol, the blotting paper was exposed to Phosphoscreen overnight, which was scanned on a Typhoon 9410 Phosphorimager instrument (GE Healthcare). The intensity of the dots was analysed by the ImageQuant software (GE Healthcare).

Series [3] in a line: in vitro. Type of series: cell-based. The conditions noted are these: human. The source says: Based on a facile [2 + 2 + 2]‐cycloisomerization strategy, a robust three‐step synthetic entry into a novel family of helical extended diquats (helquats) was developed. After a straightforward Knoevenagel condensation of the respective helquat parent with different aldehydes (Fig. 2A), more than 500 helquat-based compounds were synthesized and screened for anti-HIV-1 activity in an assay based on the inhibition of the virus-induced cytopathic effect in MT-4 cells, evaluated after 5 days post-infection by an XTT assay. In parallel with the screening, the XTT assay was also used to determine the cytotoxicity of all compounds (Fig. 2B; for more information on the synthesis and characterization of the compounds, see the Supplementary Information). […]
XTT screening. MT-4 cells were seeded in 80 µl of the RPMI without Phenol Red in the amount of 3x10^4 cells per well of a 96-well plate. 10 µl of tested compounds (500 µM at 5% DMSO) or controls (5% DMSO at PBS, AZT 1mM, SQV 100 µM) were added to the cells; after one-hour incubation at 37 °C, HIV-1 (NL4-3 strain) was added with MOI = 0.05 and the infected cells were cultivated for five days.
The viability of the cells was measured by the XTT cell viability and proliferation assay. Briefly, 50 µl of the XTT solution with the addition of PMS (both VWR) was added to the cultivation media and incubated in a humidified incubator maintained at 37 °C with 5% CO2 for four hours, after which absorbance at 560 nm was measured on a VICTOR plate reader (PerkinElmer).
The cytotoxicity of the tested compounds was evaluated separately without virus addition and analysed by the same assay.
For compounds selected as hits in the initial screening, the effective concentration that inhibits 50% of the viral activity (EC50) and the cytotoxic concentration that reduces the MT -4 cell viability by 50% (CC50) were determined. Viral activity was evaluated after five days as an HIV-1-induced cytopathic effect quantified by the XTT assay. Selected hits were tested at two-fold serial dilutions from 50 µM concentration, and the drug concentrations required to reduce the viral cytopathic effect by 50% (EC 50) as well as the drug concentrations that reduced MT-4 cell viability by 50% (CC50) were calculated by nonlinear regression using GraphPad Prism v.8.0.0 (GraphPad Software).

Series [4] has as its system NL4-3 HIV-1. Kind of series: Modified time-of-addition assay. The class given is cell-based. The note with it: 10 μM, MT-4 cells, RT activity 31 h post-infection; for activity by time of addition: added 2-24 h post-infection. On the procedure:
There are indications that G4s in the HIV-1 promoter might play roles in both RNA and DNA forms. G4s present in the LTR region of HIV-1 genomic RNA could influence reverse transcription. By contrast, G4s in the promoter region of the integrated HIV-1 provirus might regulate the transcription of viral genome and of viral mRNAs and thus the expression of viral proteins and the production of new virions - both the later stages of the HIV-1 life cycle. A modified time-of-addition assay was performed with an emphasis on the later stages of the HIV-1 life cycle, such as reverse transcription, integration and provirus expression. The tested compounds were added at several time points, but the initial time point was 2 h post-infection to eliminate their virucidal/adsorption/entry effects. Several inhibitors of the individual steps of the HIV-1 life cycle were used as controls to resolve the post-entry steps of the HIV-1 life cycle. MT-4 cells were infected with NL4-3 HIV-1 and the infection was allowed to proceed for 1 h. Subsequently, the unbound virions were washed out, and the cells were resuspended in fresh media. The compounds were first added 2 h after the infection. The culture media were harvested 31 h later and the number of released virions was monitored through the activity of reverse transcriptase in the culture media (Fig. 4).
MT-4 cells were infected with NL4-3 HIV-1 at a MOI of 1. After 1 h, the cells were washed, seeded (100,000 cells/well) and incubated at 37 °C. […] HIV-1 production was determined 31 h post-infection by measuring RT activity in the supernatant.
as §1

Molecules are shown by their SMILES. Bounds are passed on as bounds.

In general, ΔTm refers to the shift of the melting midpoint relative to a reference. In general, CC50 refers to the concentration at which the toxic effect on the cells reaches its halfway point. `COc1ccc2ccccc2c1/C=C/c1cc[n+]2c(c1)-c1c(c(C)c(C)c3c1-c1cc(/C=C/c4c(OC)ccc5ccccc45)cc[n+]1CC3)CC2` [Compound 15]: in series [1], the Tm amounted to 70 ± 1.0 °C and the ΔTm came to 19 °C. Also, in series [2], the “effect on viral replication” value is listed as “significantly impairing viral replication”. Further, the CC50 at 5 days in series [3] was greater than 50 µM. Also, in series [4], the “latest time of administration post-infection with retained antiviral activity” value (shortened to “latest time”) is no more than 5 h and the “activity by time of addition” value is “mainly manifested when these compounds are administered before or early during reverse transcription”.

With `C(=C\c1cc(/C=C/c2ccc3c(c2)CCO3)[n+]2c(c1)-c1c(ccc3c1-c1cccc[n+]1CCC3)CCC2)/c1ccc2c(c1)CCO2` [Compound 14], in series [1], the Tm was 64 ± 0.2 °C and the ΔTm stood at 13 °C. In series [2], the “effect on viral replication” value is “significantly impairing viral replication”. Further, the CC50 at 5 days in series [3] is greater than 50 µM. Moreover, in series [4], the “latest time” value was “up to 8 h” and the “activity by time of addition” value is on record as “preserved their activity at later time points”.

For the compound `Cn1cc(/C=C/c2cc(/C=C/c3cn(C)c4ccccc34)[n+]3c(c2)-c2c(ccc4c2-c2cccc[n+]2CCC4)CCC3)c2ccccc21` [Compound 12], in series [1], the Tm turned out to be 79 ± 0.2 °C and the ΔTm was 28 °C. Further, the “effect on viral replication” value in series [2] is “significantly impairing viral replication”. Also, the half-maximal cytotoxic concentration (CC50) at 5 days in series [3] is greater than 50 µM. Also, in series [4], the “latest time” value was “up to 8 h” and the “activity by time of addition” value is recorded as “preserved their activity at later time points”.

The record behind these values is article PMC10102027, “Helquat dyes targeting G-quadruplexes as a new class of anti-HIV-1 inhibitors” (Scientific Reports, 2023).
